Legend:
[1] = molecular target: L-type voltage-dependent Ca2+ channel (Homo sapiens, UniProt O60840+Q01668+Q13698+Q13936); experiment: Inhibition of L-type voltage-dependent Ca2+ channel at 1 uM
[2] = Potentiation of forskolin-induced CFTR deltaF508 mutant expressed in FRT cells co-expressing halide-sensitive YFP-H148Q/I152L by fluorescence quenching assay; type: cell-based, Homo sapiens

Row | SMILES | inhibition at 1 µM [1] | pEC50 for potentiation of CFTR deltaF508 (activation potency) [2]
1 | CCOC(=O)C1=C(C)NC(C)=C(C(=O)OC)C1c1ccc([N+](=O)[O-])cc1 (centres undefined) | 79.2% | –
2 | CCOC(=O)C1=C(C)NC(C)=C(C(=O)OCC)C1c1cccc(Br)c1 | 100% | 6.54
3 | CCOC(=O)C1=C(C)NC(C)=C(C(=O)OCC)C1c1ccccc1 | 100% | 6.4
4 | COC(=O)C1=CNC=C(C(=O)OC)C1c1ccccc1Cl | 19.7% | –
5 | CCOC(=O)C1=C(C)N=C(C)/C(=C(/O)OCC)C1/C=C/c1ccccc1 (centres undefined) | 46.3% | –
6 | CCOC(=O)C1=C(C)N=C(C)/C(=C(/O)OCC)C1/C=C/c1ccccc1OC (centres undefined) | 27.6% | –
7 | C=CCOC(=O)C1=C(C)NC(C)=C(C(=O)OCC=C)C1c1ccc(C(C)(C)C)cc1 | 5.9% | 6.96
8 | CCOC(=O)C1=C(C)NC(C)=C(C(=O)OCC)C1c1ccc(C)cc1 | 29.4% | –
9 | COC(=O)C1=C(C)N=C(C)/C(=C(/O)OC)C1/C=C/c1ccccc1 (centres undefined) | 18.8% | 5.48
10 | CCOC(=O)C1=C(C)N(c2ccc(OC)cc2)C(C)=C(C(=O)OCC)C1c1ccccc1 | 38.7% | –
11 | COC(=O)C1=C(C)N(c2ccc(N(C)C)cc2)C(C)=C(C(=O)OC)C1c1ccc(Cl)cc1 | 12.9% | –
12 | CCOC(=O)C1=C(C)NC(C)=C(C(=O)OCC)C1c1ccc(OC)cc1OC | 41.8% | 6.09
13 | CCOC(=O)C1=C(C)NC(C)=C(C(=O)OC)C1c1ccco1 (centres undefined) | 86.9% | 5.85
14 | COC(=O)C1=C(C)NC(C)=C(C(=O)OC)C1c1ccc(Cl)cc1Cl | 100% | 6.72
15 | CCOC(=O)C1=C(C)NC(C)=C(C(=O)OC)C1c1ccccc1 (centres undefined) | 100% | –
16 | COC(=O)C1=C(C)NC(C)=C(C(=O)OC)C1c1ccc(Cl)cc1 | 92.6% | 5.96
17 | CCOC(=O)C1=C(C)NC(C)=C(C(=O)OC)C1c1ccc(Cl)cc1 (centres undefined) | 100% | 6.51
18 | COC(=O)C1=C(C)NC(C)=C(C(=O)OC)C1c1ccccc1Cl | 100% | 6.34
19 | CCOC(=O)C1=C(C)NC(C)=C(C(=O)OCC)C1c1ccc(Cl)c(Cl)c1 | 100% | 6.1
20 | COC(=O)C1=C(C)NC(C)=C(C(=O)OC)C1c1ccc(OC)cc1 | 9.1% | 6.29
21 | CCOc1ccc(C2C(C(=O)OC)=C(C)NC(C)=C2C(=O)OC)cc1 | 14.6% | 5.27
22 | COC(=O)C1=C(C)NC(C)=C(C(=O)OC)C1c1ccc(OC)c([N+](=O)[O-])c1 | 15.6% | 4.93
23 | CC1=C(C(=O)OCc2ccccc2)C(c2ccc(Cl)cc2)C(C(=O)OCc2ccccc2)=C(C)N1 | 92.9% | 5.23
24 | COCCOC(=O)C1=C(C)NC(C)=C(C(=O)OCCOC)C1c1cccc([N+](=O)[O-])c1 | 100% | 5.93

Row | SMILES | inhibition at 1 µM [1] | pEC50 for potentiation of CFTR deltaF508 (activation potency) [2]
25 | CCOC(=O)C1=C(C)NC(C)=C(C(=O)OCC)C1c1ccc(OC)cc1 | 34.2% | –
26 | COC(=O)C1=C(C)N(C)C(C)=C(C(=O)OC)C1c1ccc(-c2ccccc2)cc1 | 23.5% | 5.63
27 | COC(=O)C1=C(C)N(C)C(C)=C(C(=O)OC)C1c1cccc(Cl)c1 | 40.2% | 4.89
28 | CCOC(=O)C1=C(C)NC(C)=C(C(=O)OCC)C1c1ccc(N(CC)CC)cc1 | 34.7% | 5.59
29 | CC1=C(C(=O)OC(C)C)C(c2ccc(Cl)cc2)C(C(=O)OC(C)C)=C(C)N1 | 50.5% | 6.14
30 | COc1ccc(C(=O)OC2C(C(=O)OCc3ccccc3)=C(C)NC(C)=C2C(=O)OCc2ccccc2)cc1OC | 23.3% | 5.41
31 | COc1ccc(C2C(C(=O)OC(C)C)=C(C)NC(C)=C2C(=O)OC(C)C)cc1OC | 22.1% | 5.76
32 | C=CCOC(=O)C1=C(C)NC(C)=C(C(=O)OCC=C)C1c1cccc(Oc2ccccc2)c1 | 48.2% | 6.52
33 | C=CCOC(=O)C1=C(C)NC(C)=C(C(=O)OCC=C)C1c1ccc(Cl)c(Cl)c1 | 87.2% | 6.21
34 | CCOC(=O)C1=C(C)NC(C)=C(C(=O)OCC)C1c1ccc(N(C)C)cc1 | 30.4% | 6.1
35 | CCOC(=O)C1=C(C)NC(C)=C(C(=O)OCC)C1c1ccc(OC)c(OC)c1 | 100% | 6.21
36 | CCOC(=O)C1=C(C)NC(C)=C(C(=O)OCC)C1c1ccc(OCC)cc1 | 58.7% | 6.29
37 | COC(=O)C1=C(C)NC(C)=C(C(=O)OC)C1c1ccc(Cl)c(Cl)c1 | 100% | 5.77
38 | CCOC(=O)C1=C(C)NC(C)=C(C(=O)OCC)C1c1ccccc1Cl | 100% | 6.59
39 | CCc1ccc(C2C(C(=O)OC)=C(C)NC(C)=C2C(=O)OC)cc1 | 37.4% | 6.14
40 | CCOc1ccc(C2C(C(=O)OC)=C(C)NC(C)=C2C(=O)OC)cc1OC | 22.6% | 5.62
41 | CCOC(=O)C1=C(C)NC(C)=C(C(=O)OCC)C1c1ccc(O)c(OCC)c1 | 22.8% | 5.35
42 | COc1cc(C2C(C(=O)OCc3ccccc3)=C(C)NC(C)=C2C(=O)OCc2ccccc2)ccc1O | 44.9% | 5.28
43 | COC(=O)C1=C(C)N(C)C(C)=C(C(=O)OC)C1c1ccccc1Cl | 50.6% | 5.44
44 | COC(=O)C1=C(C)N(C)C(C)=C(C(=O)OC)C1c1ccc(Cl)c(Cl)c1 | 45.6% | 4.89
45 | COC(=O)C1=C(C)N=C(C)/C(=C(/O)OC)C1c1cccc(Cl)c1 (centres undefined) | 100% | 6.22
46 | COC(=O)C1=CNC=C(C(=O)OC)C1c1ccc(Cl)c(Cl)c1 | 17.1% | 5.7
47 | CCOC(=O)C1=C(C)NC(C)=C(C(=O)OC)C1c1cccc([N+](=O)[O-])c1 (centres undefined) [NITRENDIPINE] | 100% | –

Other lines, results leading:

Row | inhibition at 1 µM [1] | pEC50 for potentiation of CFTR deltaF508 (activation potency) [2] | SMILES
48 | 100% | – | CCOC(=O)C1=C(C)NC(C)=C(C(=O)OCC)C1c1cccc([N+](=O)[O-])c1
49 | 100% | – | CCOC(=O)C1=C(C)NC(C)=C(C(=O)OCC)C1c1c(F)c(F)c(F)c(F)c1F
50 | 93.3% | – | CCOC(=O)C1=C(C)NC(C)=C(C(=O)OCC)C1c1ccc(Cl)cc1
51 | 98.6% | 5.87 | CCOC(=O)C1=C(C)NC(C)=C(C(=O)OCC)C1c1ccc(F)cc1
52 | 100% | 6.51 | CCOC(=O)C1=C(C)NC(C)=C(C(=O)OCC)C1c1cc(Cl)cc(Cl)c1OC
53 | 100% | 6.06 | COC(=O)C1=C(C)NC(C)=C(C(=O)OCCCBr)C1c1cccc([N+](=O)[O-])c1 (centres undefined)
54 | 37.6% | 6.15 | CCOC(=O)C1=C(C)NC(C)=C(C(=O)OC)C1c1ccc(C)o1 (centres undefined)
55 | 27.1% | 6.3 | CCOC(=O)C1=C(C)NC(C)=C(C(=O)OCC)C1c1ccc(Br)cc1
56 | 100% | 6.89 | CCOC(=O)C1=C(C)NC(C)=C(C(=O)OC)C1c1ccc(Cl)c(Cl)c1 (centres undefined)
57 | 95.9% | 6.26 | COC(=O)C1=C(C)NC(C)=C(C(=O)OC)C1c1ccccc1F
58 | 54.9% | 6.18 | COC(=O)C1=C(C)NC(C)=C(C(=O)OC)C1c1ccc(C(C)C)cc1
59 | 32.4% | 5.48 | COC(=O)C1=C(C)NC(C)=C(C(=O)OC)C1c1ccc(OC)c(Br)c1
60 | 37.2% | 5.71 | COC(=O)C1=C(C)NC(C)=C(C(=O)OC)C1c1ccc2c(c1)OCO2
61 | 32.1% | 5.89 | CCOC(=O)C1=C(C)NC(C)=C(C(=O)OCC)C1c1ccc(C(C)(C)C)cc1
62 | 72.8% | 5.92 | CC1=C(C(=O)OCc2ccccc2)C(c2ccc(O)cc2)C(C(=O)OCc2ccccc2)=C(C)N1
63 | 35.1% | 5.47 | COC(=O)C1=C(C)N(C)C(C)=C(C(=O)OC)C1c1ccc(Cl)c([N+](=O)[O-])c1
64 | 42.2% | 5.23 | COC(=O)C1=C(C)N(C)C(C)=C(C(=O)OC)C1c1cccc(Cl)c1Cl
65 | 100% | 6.52 | CCOC(=O)C1=C(C)NC(C)=C(C(=O)OCC)C1c1c(Cl)cccc1Cl
66 | 4.1% | – | COC(=O)C1=C(C)NC(C)=C(C(=O)OC)C1c1ccc(N(C)C)cc1
67 | 100% | 6.62 | CCOC(=O)C1=C(C)NC(C)=C(C(=O)OC)C1c1cc(Cl)cc(Cl)c1OC (centres undefined)
68 | 100% | 6.46 | COC(=O)C1=C(C)NC(C)=C(C(=O)OC)C1c1cccc(Br)c1
69 | 100% | 6.8 | COC(=O)C1=C(C)N=C(C)/C(=C(/O)OC)C1c1c(F)cccc1Cl (centres undefined)
